Like-named read-outs stand apart in the source and are kept apart here.
Test system: adhesion of U937 cells to HUVEC stimulated by IL-1β or TNFα
Test: Inhibitory effect on cell adhesion (U937 cells adhering to stimulated HUVEC)
Format: cell-based
Conditions: Homo sapiens, compound at 1 μM
Method: This test was conducted by reference to the method of Ross et al. (J. Biol. Chem., 267, 8537-8543 (1992)). More specifically, after human umbilical venous endothelial cells (HUVEC) were cultured on a 48-well plate to confluent growth, IL-1β or TNFα was added thereto. Upon elapsed time of 5 hours after the addition, U937, which is a human monocytic/histocytic cell fluorescence-labeled with PKH2 (product of Dainippon Pharmaceutical Co., Ltd.), was added in a proportion of 1×10^6 cells per well. After the plate was left at rest at room temperature for 1 hour, unadhered U937 was washed out and lysed in 1% Triton X-100 to measure a remaining fluorescence intensity (excitation wavelength: 480 nm; measuring wavelength: 530 nm). HUVEC and U937 were cultured in EGM-2 (product of Sanko Junyaku K.K.) and 10% FCS-containing RPMI1640, respectively. Each test agent was added to HUVEC upon the addition of IL-1β or TNFα and to U937 24 hours prior to the cell adhesion test. The inhibitory activity was calculated out according to the equation [100-(C−B)/(A−B)×100 (%)], wherein A is the number of U937 cells adhered to HUVEC stimulated by IL-1β or TNFα when no test agent was added, B is the number of U937 cells adhered to HUVEC not stimulated by IL-1β or TNFα when no test agent was added, and C is the number of U937 cells adhered to HUVEC stimulated by IL-1β or TNFα when the test agent was added. As control compounds, Test Compound 1 described in Japanese Patent Application Laid-Open No. 9-143075 and dilazep described in Japanese Patent Application Laid-Open No. 11-92382 were simultaneously evaluated.

[1] = HUVEC stimulated by IL-1β, read-out: Percent inhibition (%) Stimulation by IL-1β
[2] = HUVEC stimulated by TNFα, read-out: Percent inhibition (%) Stimulation by TNFα

Row | SMILES | inhibition at 1 µM [1] [%] | inhibition at 1 µM [2] [%]
1 | COc1cc(C(=O)OCCCN2CCCN(CCCOC(=O)c3cc(OC)c(OC)c(OC)c3)CC2)cc(OC)c1OC [Dilazep, dilazep, reference compound] | 0 | 12
2 | COc1cc(-c2nc(CCCN3CCCN(CCCc4csc(-c5cc(OC)c(OC)c(OC)c5)n4)CC3)cs2)cc(OC)c1OC [Example 6, N,N′-bis[3-(2-(3,4,5-Trimethoxyphenyl)-thiazol-4-yl)propyl]homopiperazine] | 54 | 45
3 | COc1cc(C#Cc2nc(CN3CCCN(Cc4csc(C#Cc5cc(OC)c(OC)c(OC)c5)n4)CC3)cs2)cc(OC)c1OC [Example 7, N,N′-bis[[2-(3,4,5-Trimethoxyphenylethynyl)-thiazol-4-yl]methyl]homopiperazine] | 46 | 60
4 | COc1cc(C(=O)Nc2nc(CN3CCN(Cc4csc(NC(=O)c5cc(OC)c(OC)c(OC)c5)n4)CC3)cs2)cc(OC)c1OC [Example 8, N,N′-bis[[2-(3,4,5-Trimethoxybenzamido)-thiazol-4-yl]methyl]piperazine] | 64 | 58
5 | COc1cc(C(=O)Nc2nc(CN3CCCN(Cc4csc(NC(=O)c5cc(OC)c(OC)c(OC)c5)n4)CC3)cs2)cc(OC)c1OC [Example 9, N,N′-bis[[2-(3,4,5-Trimethoxybenzamido)-thiazol-4-yl]methyl]homopiperazine] | 40 | 50
6 | COc1cc(-c2nc(C)c(CN3CCCN(Cc4sc(-c5cc(OC)c(OC)c(OC)c5)nc4C)CC3)s2)cc(OC)c1OC [Example 11, N,N′-bis[[4-Methyl-2-(3,4,5-trimethoxy-phenyl)thiazol-5-yl]methyl]homopiperazine Dimaleate] | 33 | 53
7 | COc1cc(-c2cc(CN3CCN(Cc4cc(-c5cc(OC)c(OC)c(OC)c5)n(Cc5ccccc5)n4)CC3)nn2Cc2ccccc2)cc(OC)c1OC [Example 16, N,N′-bis[[1-Benzyl-5-(3,4,5-trimethoxy-phenyl)pyrazol-3-yl]methyl]piperazine] | 30 | 51

Reference: patent publication US6472386B1, “Cyclic diamine compound with 5-membered ring groups” (Kowa Co., Ltd., priority 2001, dated 2002)
